# Measured values published in patent US20250250537A1, “IN VITRO INSECT FAT CULTIVATION FOR CELLULAR AGRICULTURE APPLICATIONS” (Trustees of Tufts College, priority 2022, published 2025).
# What was measured:
# Ms PCs = assay: Lipid accumulation screen in Ms PCs (BODIPY and Oil Red O staining, Oil Red O dye elution); type: cell-based, M. sexta; conditions: 1 mM, 7 days in culture
# Protocol: To screen for lipid accumulation in Ms PCs, cells were seeded at 100,000 cells/cm^2 in 48-well plates. After 24 hours in culture, media was refreshed with growth media supplemented with variable concentrations (0, 0.01, 0.1, 1 mM) of water-soluble oleic acid (01257, Sigma-Aldrich) or Intralipid (I141, Sigma-Aldrich). After seven days in culture, cells were stained with BODIPY ([…], Fisher Scientific) at a 1:2,000 dilution and NucBlue (R37605, Fisher Scientific) or fixed and stained with Oil Red O (O0625, Sigma-Aldrich). Cells were imaged on a fluorescence microscope (BZ-X800, Keyence). To quantify lipid accumulation, Oil Red O dye from each condition was eluted with isopropanol and absorbance (500 nm) was measured on a microplate reader. To investigate lipid accumulation over time, cells were treated with 0.1 mM of Intralipid and stained with BODIPY and NucBlue on days 1, 4, 7 and 14.
# S2 cells = conditions: 1 mM over 24 hours; cited from earlier work
compound,measurement,setting,value
CCCCCCCC/C=C\CCCCCCCC(=O)O [oleic acid],lipid droplet formation (BODIPY and Oil Red O staining),Ms PCs,visible
same,"morphology, growth and viability of treated cells",Ms PCs,"unhealthy morphology, minimal growth, and were assumed to be nonviable"
same,increase in triacylglycerol content,S2 cells,5 fold
